From patent publication US10167518B2, “Methods of stratifying patients for treatment with retinoic acid receptor-alpha agonists” (Syros Pharmaceuticals, Inc., priority 2015, dated 2019)

Experiments:
[1] = target: T1, RAR alpha (Homo sapiens, UniProt P10276); assay: SelectScreen Nuclear Profiling, agonist specificity for RAR alpha; type: cell-based; conditions: for EC50 / RAR alpha % max: agonist specificity, SelectScreen; for RAR-a/RAR-g Selectivity % max: ratio of RAR alpha to RAR gamma % max; for RAR-a/RAR-g Selectivity EC50: ratio of RAR gamma to RAR alpha EC50
T1 sequence (P10276 1-462): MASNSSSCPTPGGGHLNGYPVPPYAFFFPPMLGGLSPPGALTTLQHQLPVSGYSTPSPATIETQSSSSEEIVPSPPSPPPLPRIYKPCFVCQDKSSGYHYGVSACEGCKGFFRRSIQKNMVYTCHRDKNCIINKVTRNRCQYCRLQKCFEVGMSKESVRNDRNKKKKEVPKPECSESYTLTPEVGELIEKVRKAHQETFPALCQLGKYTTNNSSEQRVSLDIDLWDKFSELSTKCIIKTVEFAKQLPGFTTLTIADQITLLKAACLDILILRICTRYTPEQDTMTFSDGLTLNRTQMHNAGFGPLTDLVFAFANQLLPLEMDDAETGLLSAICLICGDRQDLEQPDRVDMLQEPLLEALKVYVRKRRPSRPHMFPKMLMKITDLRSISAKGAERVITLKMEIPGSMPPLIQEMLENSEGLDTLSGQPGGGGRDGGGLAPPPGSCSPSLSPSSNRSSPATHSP
Procedure: (§1) The agonist specificity of the various test compounds for each type of RaR is assessed at Life Technologies using their SelectScreen® Nuclear Profiling Services.

[2] = target: T2, RAR gamma (Homo sapiens, UniProt P13631); assay: SelectScreen Nuclear Profiling, agonist specificity for RAR gamma; type: cell-based
T2 sequence (P13631 1-454): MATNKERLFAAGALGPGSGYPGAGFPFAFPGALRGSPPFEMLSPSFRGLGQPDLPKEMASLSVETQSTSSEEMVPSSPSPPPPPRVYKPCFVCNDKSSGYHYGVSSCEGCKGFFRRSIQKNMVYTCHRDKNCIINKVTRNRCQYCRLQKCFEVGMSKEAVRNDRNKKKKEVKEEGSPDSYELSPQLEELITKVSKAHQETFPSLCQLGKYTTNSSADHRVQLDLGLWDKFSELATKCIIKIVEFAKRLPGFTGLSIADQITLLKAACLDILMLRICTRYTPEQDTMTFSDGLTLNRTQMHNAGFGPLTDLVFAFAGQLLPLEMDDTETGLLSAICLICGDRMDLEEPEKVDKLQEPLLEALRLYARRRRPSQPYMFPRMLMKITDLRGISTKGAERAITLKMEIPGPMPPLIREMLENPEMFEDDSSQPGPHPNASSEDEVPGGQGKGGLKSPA
Procedure: as §1

[3] = target: T3, RAR beta (Homo sapiens, UniProt P10826); assay: SelectScreen Nuclear Profiling, agonist specificity for RAR beta; type: cell-based
T3 sequence (P10826 1-455): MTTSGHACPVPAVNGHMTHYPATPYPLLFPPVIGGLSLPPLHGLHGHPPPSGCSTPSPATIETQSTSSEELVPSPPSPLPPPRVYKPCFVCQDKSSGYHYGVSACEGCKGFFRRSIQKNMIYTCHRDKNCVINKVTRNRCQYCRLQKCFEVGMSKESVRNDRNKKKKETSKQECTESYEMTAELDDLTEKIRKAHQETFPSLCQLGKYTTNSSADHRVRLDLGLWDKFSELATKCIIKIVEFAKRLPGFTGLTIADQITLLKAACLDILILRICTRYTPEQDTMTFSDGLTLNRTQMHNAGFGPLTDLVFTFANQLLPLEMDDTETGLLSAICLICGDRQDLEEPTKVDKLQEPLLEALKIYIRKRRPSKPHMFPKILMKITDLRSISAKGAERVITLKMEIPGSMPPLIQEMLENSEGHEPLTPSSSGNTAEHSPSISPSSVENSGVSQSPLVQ
Procedure: as §1

[4] = tested on: AM5512 AML patient sample-derived xenograft; assay: AML patient sample-derived xenograft AM5512, % human CD45+ cells and survival
Procedure: AM5512 xenograft mice are prepared as described above.

[5] = tested on: AM7577 AML patient sample-derived xenograft; assay: AML patient sample-derived xenograft AM7577, % human CD45+ cells; type: in vivo, mice; conditions: 6 mg per kg daily oral
Procedure: (§2) Different AML patient sample (AM8096, AM5512, AM7577 and AM7440)-derived xenograft models in BALB/c nude immunocompromised mice are prepared by Crown Biosciences (Beijing, China) essentially as follows.
(§3) Approximately 2×10^6 cells from each patient sample are suspended in 100 μL PBS and injected into separate mice (n=3 for each different patient sample and for the control) by IV tail injection. For AM5512, AM7577 and AM7440 xenografts, tumor burden is considered high enough to start treatment when the concentration of human CD45^+ cells reaches ˜1-5% in the animal's peripheral blood. Human CD45^+ cells are detected in mouse blood (obtained via eye bleeds) using a fluorescence activated cell sorter and FITC anti-human CD45 (Biolegend, Cat#304037). For AM8096 xenografts, treatment is begun 40 days after injection of cells.
(§4) Human CD45^+ cell levels in peripheral blood from the treated animals and control animals are measured once a week.

[6] = tested on: AML cell lines (SigM5, OCI M1, MV411, HEL, Kasumi); assay: Cell viability screening of AML cell lines (ATPlite/CyQuant); type: cell-based
Procedure: (§5) On the day of the experiment, cells are homogenized using Accumax (EMD Millipore), counted, and adjusted to 40,000 cells/ml for breast cancer lines and 60,000 cells/mL for AML in appropriate growth media. Using a Biotek EL406, 50 μl of cells are distributed into white (ATPlite) or black (CyQuant) 384-well plates (Thermo). Cells are returned to 37° C. incubator to allow adhesion. After three hours, compounds are added to plates using a 20 nl 384-well pin transfer manifold on a Janus workstation. Stocks are arrayed in 10 point quadruplicate dose response in DMSO stock in 384-well compound plates. After addition of compound, plates are incubated for five or ten days in a 37° C. incubator.
Cell viability is read out using ATPlite (Perkin Elmer) or CyQuant (Life Technologies). For ATPlite, plates are removed from the incubator and brought to room temperature prior to use. Lyophilized powder of ATPlite reagent is resuspended in lysis buffer and diluted 1:2 with distilled water. 25 μL of this solution is added to each well using the Biotek liquid handler. Plates are incubated for 15 min at room temperature before the luminescence signal was read on an Envision Plate Reader (Perkin Elmer). For CyQuant, reagents are mixed as per manufacturer's instructions in PBS (Gibco). Reagent are added using a multichannel pipet and plates are replaced in incubator for 30 minutes prior to readout on an Envision Plate Reader (Perkin Elmer).
Data acquired as described is stored and grouped in Microsoft's Excel and analyzed using GraphPad Prism Software. […] Edge wells were excluded.

[7] = tested on: AM7440 AML patient sample-derived xenograft; assay: AML patient sample-derived xenograft AM7440, % human CD45+ cells; type: in vivo, mice; conditions: 6 mg per kg daily oral
Procedure: as §2, §3, §4

[8] = tested on: HCC1954 tumor cells xenograft; assay: HCC1954 breast cancer cell line-derived xenograft, tumor volume; type: in vivo, mice
Procedure: Breast cancer cell line (HCC1954)-derived xenograft models in BALB/c nude immunocompromised mice are prepared by Crown Biosciences (Beijing, China) essentially as follows.
Six to eight week old BALB/c nude immunocompromised mice, weighing between 18-20 g are inoculated subcutaneously at the right flank region with HCC1954 tumor cells (5×10^6) in 0.1 ml of PBS (1:1 matrigel) for tumor development. […] The final dosage in mice is 6 mg per kg per day in the high dose arm (n=10) and 3 mg per kg per day in the low dose arm (n=10) in a 10 ml/kg volume. […] Tumor volume is measured twice weekly by caliper measurement.

[9] = tested on: AM8096 AML patient sample-derived xenograft; assay: AML patient sample-derived xenograft AM8096, % human CD45+ cells; type: in vivo, mice; conditions: 6 mg per kg daily oral, after 35 days
Procedure: as §2, §3, §4

[10] = tested on: breast cancer cell lines (SKBR3, Au565, ZR75, Hcc1143); assay: Cell viability screening of breast cancer cell lines (ATPlite/CyQuant); type: cell-based; conditions: four breast cancer cell lines, 5 days of treatment, FIG. 7
Procedure: All cell lines are obtained from ATCC and cultured at 37° C. in 5% CO2. All are grown in RPMI1640 supplemented with 10 mM HEPES buffer, 2 mM L-glutamine, 50 U/mL penicillin, 50 […] and 10% fetal bovine serum (FBS, all from Invitrogen). Cells lines included AU565, SKBR3, T47D, HCC1143, MCF7, ZR-75-1, and HCC1569.
as §5, with “Stocks are arrayed in 10 point quadruplicate dose response in DMSO stock in 384-well compound plates. After addition of compound, plates are incubated for five or ten days in a 37° C. incubator.” left out
Cell viability is read out using ATPlite (Perkin Elmer) or CyQuant (Life Technologies). […] Plates are incubated for 15 min at room temperature before the luminescence signal was read on an Envision Plate Reader (Perkin Elmer). […] Reagent are added using a multichannel pipet and plates are replaced in incubator for 30 minutes prior to readout on an Envision Plate Reader (Perkin Elmer).
Data acquired as described is stored and grouped in Microsoft's Excel and analyzed using GraphPad Prism Software. […]

| EC50 [1] [nM] | RAR alpha % max [1] [%] | EC50 [2] [nM] | RAR gamma % max [2] [%] | RAR beta % max [3] [%] | EC50 [3] [nM] | SMILES | other results |
| --- | --- | --- | --- | --- | --- | --- | --- |
| 27.4 | −3.417 | 512 | −13.41 | 0 | – | CC1(C)CC=C(C#Cc2ccccc2)c2cc(/C=C/c3ccc(C(=O)O)cc3)ccc21 [BMS493] | – |
| 1.43 | 122.2 | 136 | 19.83 | 6 | 701 | CC1(C)C(=O)C(C)(C)c2cc(C(=O)Nc3ccc(C(=O)O)cc3)ccc21 [BMS753] | specificity for RARA over RaR-γ ([1]; comparison among tested compounds): greatest specificity for RARA over RaR-γ; RAR-a/RAR-g Selectivity % max [1]: 6.1624; RAR-a/RAR-g Selectivity EC50 [1]: 94.8396 |

Second part, the compound before the results:

| SMILES | EC50 [1] [nM] | RAR alpha % max [1] [%] | EC50 [2] [nM] | RAR gamma % max [2] [%] | RAR beta % max [3] [%] | EC50 [3] [nM] | other results |
| --- | --- | --- | --- | --- | --- | --- | --- |
| CC1(C)CC=C(c2cnc3ccccc3c2)c2cc(C(=O)Nc3ccc(C(=O)O)cc3)ccc21 [BMS195614] | 1340 | −31.01 | 434 | −14.57 | 0 | – | – |
| COc1ccc(-c2ccc3cc(C(=O)O)ccc3c2)cc1C12CC3CC(CC(C3)C1)C2 [Adapalene] | 5.01 | 102.2 | – | 87.7 | 69.36 | 9.73 | – |
| CC1(C)CCC(C)(C)c2cc(C(=O)Nc3ccc(C(=O)O)cc3)ccc21 [AM580] | – | – | – | 87.06 | 78.24 | – | – |
| CC1(C)CCSc2ccc(C#Cc3ccc(C(=O)O)cn3)cc21 [Tazarotenic, Tazarotenic acid] | 0.353 | 121.4 | 1.1 | 78.33 | 71.88 | 5.17 | RAR-a/RAR-g Selectivity % max [1]: 1.5499; RAR-a/RAR-g Selectivity EC50 [1]: 3.1172 |
| CC1=C(/C=C/C(C)=C/C=C/C(C)=C/C(=O)O)C(C)(C)CCC1 [Tretinoin, all-trans retinoic acid] | – | 149.4 | – | 99.37 | 92.77 | – | % CD45+ cells vs vehicle control ([4]; 4 mg/kg BID, after 14 days): reduction in % CD45^+ cells; survival ([4]; 4 mg/kg BID, n=7): none of those mice survived past day 21 |
| CC1(C)CCC(C)(C)c2cc(NC(=O)c3ccc(C(=O)O)cc3)ccc21 [tamibarotene] | – | – | – | 106.1 | 114.9 | – | % human CD45+ cells (overall, blood, bone marrow, spleen) vs vehicle [5]: no significant reduction; responsiveness of cell line ([6]; HEL cells): non-responsive; responsiveness of cell line ([6]; MV411 cells): tamibarotene-responsive; sensitivity order of AML cell lines (viability) ([6]; SigM5, MV411, HEL, Kasumi, FIGS. 23A-B): SigM5>MV411>HEL=Kasumi; sensitivity order of AML cell lines (viability) ([6]; three AML cell lines, 5 days of treatment, FIG. 9): SigM5>OCI M1>HEL; tumor volume (overall, blood, bone marrow, spleen) vs vehicle [7]: no significant reduction; tumor volume ([8]; 3 and 6 mg per kg per day, QD PO, up to 21 days): reduces tumor volume in this model in a dose-dependent manner; reduction in tumor volume, p (t-test, Welch's correction) ([8]; high dose arm, 6 mg per kg per day QD PO): 0.0048; reduction in tumor volume, p (t-test, Welch's correction) ([8]; low dose arm, 3 mg per kg per day QD PO): 0.0552; total % of CD45+ cells and % in blood, bone marrow and spleen vs vehicle [9]: significant reduction; sensitivity order of breast cancer cell lines (viability) [10]: SKBR3>Au565>ZR75>Hcc1143; % CD45+ cells vs vehicle control and ATRA-treated animals ([4]; 3 mg/kg BID, after 28 days): significant reduction; animals surviving the course of the experiment ([4]; 3 mg/kg BID, n=7): 5 of the 7; total % of CD45+ cells and % in blood, bone marrow and spleen vs vehicle ([4]; 6 mg per kg daily oral, after 35 days): significant reduction |
